The text below walks through data of patent US10538487B2, “Sulfonylureas and related compounds and use of same” (priority 2015, dated 2020).

Read-outs that look alike come from different tables or passages of the source. Some results are limits rather than exact numbers.

The target in data set [1] is T1, NLRP3 inflammasome (Homo sapiens, UniProt Q96P20). Kind of data set: Inhibition of IL-1β release, NLRP3 inflammasome activation assay in HMDM. The data set is classed as cell-based. The procedure, abridged: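 Primary human monocyte-derived macrophages from CD14+ buffy-coat monocytes, seeded at 1×10^5/ml. Compound added in serum-free medium 30 min before NLRP3 stimulation (ATP, nigericin, LeuLeu-OMe or MSU). Cytokine in supernatants measured by ELISA or AlphaLISA; cell death by LDH release relative to full lysis.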
T1 sequence (Q96P20 whole entry): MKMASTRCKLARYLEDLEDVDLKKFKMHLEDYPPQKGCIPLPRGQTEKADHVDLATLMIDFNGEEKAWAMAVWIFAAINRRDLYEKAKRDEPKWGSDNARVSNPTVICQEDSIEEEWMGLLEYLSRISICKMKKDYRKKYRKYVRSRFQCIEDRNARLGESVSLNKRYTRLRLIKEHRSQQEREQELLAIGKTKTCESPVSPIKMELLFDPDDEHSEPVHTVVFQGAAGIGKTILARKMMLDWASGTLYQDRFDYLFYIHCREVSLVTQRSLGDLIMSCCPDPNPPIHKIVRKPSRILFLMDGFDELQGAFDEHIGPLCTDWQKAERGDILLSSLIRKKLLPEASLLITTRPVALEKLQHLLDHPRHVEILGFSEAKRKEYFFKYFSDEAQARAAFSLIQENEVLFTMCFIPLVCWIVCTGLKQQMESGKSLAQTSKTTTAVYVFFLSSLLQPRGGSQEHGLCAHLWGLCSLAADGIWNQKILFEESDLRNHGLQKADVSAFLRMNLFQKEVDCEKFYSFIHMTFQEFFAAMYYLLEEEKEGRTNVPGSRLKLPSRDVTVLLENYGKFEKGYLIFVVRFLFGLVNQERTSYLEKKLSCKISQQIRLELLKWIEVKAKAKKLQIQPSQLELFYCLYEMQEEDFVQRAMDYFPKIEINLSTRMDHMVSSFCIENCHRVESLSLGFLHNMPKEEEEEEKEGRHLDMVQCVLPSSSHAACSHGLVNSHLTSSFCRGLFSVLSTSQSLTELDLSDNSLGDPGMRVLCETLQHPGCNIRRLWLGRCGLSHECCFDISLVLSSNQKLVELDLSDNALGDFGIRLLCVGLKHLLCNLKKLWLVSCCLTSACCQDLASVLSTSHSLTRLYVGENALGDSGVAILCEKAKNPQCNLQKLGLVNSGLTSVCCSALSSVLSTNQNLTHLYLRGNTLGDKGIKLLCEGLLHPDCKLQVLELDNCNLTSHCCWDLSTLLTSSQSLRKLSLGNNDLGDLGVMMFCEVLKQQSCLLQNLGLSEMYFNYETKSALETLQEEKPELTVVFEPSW

Data set [2] has as its target T1, NLRP3 inflammasome. Kind of data set: Inhibition of IL-18 release, NLRP3 inflammasome activation assay in HMDM. It counts as cell-based. Particulars: class symbols. As for the experimental part: The following assays can be used to determine inhibitory activity of test compounds on the NLRP3 inflammasome using common stimuli such as adenosine triphosphate, nigericin, LeuLeu-OMe or monosodium urate crystals (MSU).
To generate HMDM, human monocytes are isolated from buffy coat blood using Ficoll-Plaque Plus (GE Healthcare) and density centrifugation. CD14^+ cell selection is performed using MACS magnetic beads (Miltenyl Biotec).
HMDM are seeded at 1×10^5/ml. […] Medium is removed and replaced with serum free medium (SFM) containing test compound 30 min prior to NLRP3 stimulation. […] ATP can be sourced from Sigma Aldrich, nigericin and MSU from Invivogen and LeuLeu-Ome from Chem-Impex International.
For ELISA and cell death assays cells are seeded in 96 well plates. Supernatants are removed and analysed using ELISA kits according to the manufacturer's instructions (DuoSet® R&D Systems, ReadySetGo!® eBioscience, BD OptEIA™, or Perkin Elmer AlphaLISA®). Cell death is assessed by measurement of LDH release relative to a 100% cell lysis control using the CytoTox96® non-radioactive cytotoxicity assay (Promega).

The nature of data set [3]: Half life of CRID3 in mouse (stated in description). It counts as in vivo.
Data set [4] addresses NLRP3 inflammasome (Mus musculus, UniProt Q8R4B8). Kind of data set: Inhibition of IL-1β release, NLRP3 inflammasome activation assay in BMDM. It counts as cell-based. The procedure, abridged: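 C57BL/6 mouse BMDM seeded at 1×10^5/ml were primed with E. coli K12 LPS for 3 h, then given compound in serum-free medium 30 min before NLRP3 stimulation (ATP, nigericin, LeuLeu-OMe or MSU). Released IL-1β in supernatants was measured by ELISA, and cell death by LDH release relative to full lysis.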

Data set [5] is described as follows: Compound levels in blood plasma of mice after oral gavage (LC-MS/MS). The data set is classed as in vivo. The following applies: mouse, 2 hour timepoint after oral gavage at 20 mg/Kg.
Experimental: A series of 10-fold dilutions of the 100,000 ng/mL stock solution with 10 mM NH4HCO3 gave concentrations of 10,000, 1,000, 100 and 10 ng/mL. The 100,000 ng/mL stock solution was diluted to 3:7 with 10 mM NH4HCO3 to give a concentration of 30,000 ng/mL and a series of 10-fold dilutions gave concentrations of 3,000, 300, 30 and 3 ng/mL.
20 μL of test compound-containing solution and 160 μL precipitation solution were added to 20 μL of mouse plasma in a low binding Eppendorf tube. The samples were vortexed, allowed to stand at 4° C. for 10 mins and centrifuged at 14,000×g for 8 min. 150 μL of the supernatant was transferred to an HPLC vial insert. The samples were stored at 4° C. until analysis.
Dosing: Oral gavage at 20 mg/kg
(§1) Prepare stock compounds for dosing at 4 mg/ml in sterile PBS. Mice were weighed and dosed by oral gavage at 20 mg/kg for each compound. […]
The samples were analysed on an AB Sciex 4000QTrap MS with 2 Shimadzu Nexera LC-30AD Solvent Delivery Units, Shimadzu Nexera SIL-30AC Auto-Sampler, Shimadzu Prominence DGU-20A5 Degasser, Shimadzu Prominence CBM-20A System Controller and Shimadzu Prominence CTO-20A Column Oven. […] The peak areas from the SRM data for carbutamide and test compound were analysed using the AB Sciex's Analyst software using the Quantitation Wizard.
Another data set is described as follows: in vivo. The following applies: mouse, brain, mice, oral gavage at 20 mg/kg.
[6] abbreviates: inhibition of IL-1β release, class symbols, read-out: Avg. IL-1β IC50 HMDM.
[7] abbreviates: inhibition of IL-1β release, class symbols, read-out: Avg. IL-1β IC50 Murine BMDM.
[8] abbreviates: select compounds of the first aspect (Table 10), read-out: BMDM IC50 vs NLRP3.
[9] abbreviates: select compounds of the first aspect (Table 10), read-out: HMDM IC50 vs NLRP3.

NLRP3 inflammasome (Mus musculus, UniProt Q8R4B8), sequence (Q8R4B8 whole entry): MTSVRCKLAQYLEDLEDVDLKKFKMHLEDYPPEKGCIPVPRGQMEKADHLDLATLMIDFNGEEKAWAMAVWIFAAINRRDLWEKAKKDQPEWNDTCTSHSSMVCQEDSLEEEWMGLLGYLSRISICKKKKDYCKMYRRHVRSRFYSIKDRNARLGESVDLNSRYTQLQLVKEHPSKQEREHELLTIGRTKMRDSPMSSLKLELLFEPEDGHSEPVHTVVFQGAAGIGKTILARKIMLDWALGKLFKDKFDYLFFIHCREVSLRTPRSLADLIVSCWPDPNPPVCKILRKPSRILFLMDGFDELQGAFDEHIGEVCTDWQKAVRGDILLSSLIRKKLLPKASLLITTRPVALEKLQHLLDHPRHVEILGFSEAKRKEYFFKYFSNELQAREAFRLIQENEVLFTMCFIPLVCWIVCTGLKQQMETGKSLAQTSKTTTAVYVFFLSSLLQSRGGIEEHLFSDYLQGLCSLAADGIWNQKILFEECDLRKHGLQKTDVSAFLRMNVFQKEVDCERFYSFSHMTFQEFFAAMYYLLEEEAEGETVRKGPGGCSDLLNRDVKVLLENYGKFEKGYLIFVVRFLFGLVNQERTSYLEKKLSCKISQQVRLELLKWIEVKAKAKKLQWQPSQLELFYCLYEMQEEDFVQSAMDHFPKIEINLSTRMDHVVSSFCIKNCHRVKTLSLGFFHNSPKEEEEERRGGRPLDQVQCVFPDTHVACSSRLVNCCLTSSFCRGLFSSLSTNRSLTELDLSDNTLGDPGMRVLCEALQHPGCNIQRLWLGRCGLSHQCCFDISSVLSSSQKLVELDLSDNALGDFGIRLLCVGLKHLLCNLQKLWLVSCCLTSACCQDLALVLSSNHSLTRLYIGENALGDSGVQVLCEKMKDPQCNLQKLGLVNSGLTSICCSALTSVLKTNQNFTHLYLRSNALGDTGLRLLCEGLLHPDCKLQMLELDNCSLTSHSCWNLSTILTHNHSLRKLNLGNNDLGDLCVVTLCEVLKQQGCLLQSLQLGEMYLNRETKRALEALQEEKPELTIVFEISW
Experimental for in vivo: The sample solutions prepared for the plasma standard curve were used for the brain homogenate standard curve.
The mouse brain homogenate from the saline control was thawed and vortexed for 3 min or until homogenous, sonicated for 1 min. When the foam settled, 50 μL of mouse brain homogenate was transferred into an Eppendorf tube, followed by 50 μL of test compound in 10 mM NH4HCO3, 150 μL of H2O and 500 μL of ice cold precipitation solution with vortexing after every addition. The standards were allowed to stand at 4° C. for 10 mins and then centrifuged at 14,000×g for 8 min. 200 μL of the supernatant was transferred to HPLC vial insert ensuring that no air bubbles were present and the samples stored at 4° C. until analysis.
Dosing: Oral gavage at 20 mg/kg
as §1
The samples were analysed on an AB Sciex 4000QTrap MS with 2 Shimadzu Nexera LC-30AD Solvent Delivery Units, Shimadzu Nexera SIL-30AC Auto-Sampler, Shimadzu Prominence DGU-20A5 Degasser, Shimadzu Prominence CBM-20A System Controller and Shimadzu Prominence CTO-20A Column Oven. […] The peak areas from the SRM data for carbutamide and test compound were analysed using the AB Sciex's Analyst software using the Quantitation Wizard. […]

`CC(C)(C)n1ccc(S(=O)(=O)NC(=O)Nc2c3c(cc4c2CCC4)CCC3)n1` [1-(tert-butyl)-N-((1,2,3,5,6,7-hexahydro-s-indacen-4-yl)carbamoyl)-1H-pyrazole-3-sulfonamide]: the IC50 on NLRP3 inflammasome [1] (setting [6]) and against NLRP3 inflammasome [2] was < 100 nM throughout.
Turning to `O=C(Nc1c2c(cc3c1CCC3)CCC2)NS(=O)(=O)c1ncn(Cc2ccccc2)n1` [1-benzyl-N-((1,2,3,5,6,7-hexahydro-s-indacen-4-yl)carbamoyl)-1H-1,2,4-triazole-3-sulfonamide], the half-inhibitory concentration (IC50) on NLRP3 inflammasome [1] (setting [6]) and against NLRP3 inflammasome [2] was < 100 nM each time.
`CC(C)(O)c1cc(S(=O)(=O)NC(=O)Nc2c3c(cc4c2CCC4)CCC3)nn1Cc1ccccc1` [1-benzyl-N-((1,2,3,5,6,7-hexahydro-s-indacen-4-yl)carbamoyl)-5-(2-hydroxypropan-2-yl)-1H-pyrazole-3-sulfonamide]: the half-inhibitory concentration (IC50) at NLRP3 inflammasome [1] (setting [6]) and against NLRP3 inflammasome [2] was < 100 nM in each case.
For `CC(C)(O)c1coc(S(=O)(=O)NC(=O)Nc2c3c(cc4c2CCC4)CCC3)c1` [CRID3], the half life in data set [3] worked out at 3.2 h.
For `Cn1nc(S(=O)(=O)NC(=O)Nc2c3c(cc4c2CCC4)CCC3)cc1C(C)(C)O` [N-((1,2,3,5,6,7-hexahydro-s-indacen-4-yl)carbamoyl)-5-(2-hydroxypropan-2-yl)-1-methyl-1H-pyrazole-3-sulfonamide], the 50% inhibitory concentration (IC50) on NLRP3 inflammasome [4] (setting [7]), at NLRP3 inflammasome [1] (setting [6]) and against NLRP3 inflammasome [2] was < 100 nM each time.
As for `CC(C)(O)c1cc(S(=O)(=O)NC(=O)Nc2c3c(cc4c2CCC4)CCC3)nn1-c1ccccc1` [N-((1,2,3,5,6,7-hexahydro-s-indacen-4-yl)carbamoyl)-5-(2-hydroxypropan-2-yl)-1-phenyl-1H-pyrazole-3-sulfonamide], the IC50 on NLRP3 inflammasome [4] (setting [7]), on NLRP3 inflammasome [1] (setting [6]) and on NLRP3 inflammasome [2] was < 100 nM in each case.
For the compound `Cc1ccc(S(=O)(=O)NC(=O)Nc2c3c(cc4c2CCC4)CCC3)o1` [N-((1,2,3,5,6,7-hexahydro-s-indacen-4-yl)carbamoyl)-5-methylfuran-2-sulfonamide], the IC50 at NLRP3 inflammasome [1] (setting [6]) and at NLRP3 inflammasome [2] was < 100 nM in each case.
For `Cc1ccc(S(=O)(=O)NC(=O)Nc2c3c(cc4c2CCC4)CCC3)s1` [N-((1,2,3,5,6,7-hexahydro-s-indacen-4-yl)carbamoyl)-5-methylthiophene-2-sulfonamide], the IC50 at NLRP3 inflammasome [1] (setting [6]) and against NLRP3 inflammasome [2] was < 100 nM throughout.
Consider `O=C(Nc1c2c(cc3c1CCC3)CCC2)NS(=O)(=O)c1cccs1` [N-((1,2,3,5,6,7-hexahydro-s-indacen-4-yl)carbamoyl)thiophene-2-sulfonamide], for which the IC50 on NLRP3 inflammasome [1] (setting [6]) and at NLRP3 inflammasome [2] was < 100 nM each time.
In the case of `CC(C)c1cccc(C(C)C)c1NC(=O)NS(=O)(=O)c1cc(C(C)(C)O)n(C)n1` [N-((2,6-diisopropylphenyl)carbamoyl)-5-(2-hydroxypropan-2-yl)-1-methyl-1H-pyrazole-3-sulfonamide], the IC50 on NLRP3 inflammasome [1] (setting [6]) and against NLRP3 inflammasome [2] was < 100 nM each time.
For `CC(C)(O)c1coc(S(=O)(=O)NC(=O)Nc2c3c(cc4c2CCC4)CCC3)c1` [drawing 335], the concentration at 2 h is 17500 ng/mL in data set [5] and 184 ng/g in “in vivo”. For the same compound, the Kp at 2 h in “in vivo” (read-out: Brain/Plasma Ratio) was 0.0117.
The compound `CC(C)n1ccc(S(=O)(=O)NC(=O)Nc2c3c(cc4c2CCC4)CCC3)n1` [drawing 336] showed a concentration at 2 h in data set [5] of 28200 ng/mL.
Regarding `COc1ccc2c(c1)C(=O)N(CCc1ccc(S(=O)(=O)NC(=O)Nc3c4c(cc5c3CCC5)CCC4)cc1)C(=O)C2(C)C` [drawing 361], the IC50 was found to be 260 nM at NLRP3 inflammasome [4] (setting [8]) and 2300 nM on NLRP3 inflammasome [1] (setting [9]).
For `Cc1cc(C(=O)NCCc2ccc(S(=O)(=O)NC(=O)Nc3c4c(cc5c3CCC5)CCC4)cc2)no1` [drawing 362], the figures for the IC50 on NLRP3 inflammasome [4] (setting [8]) and on NLRP3 inflammasome [1] (setting [9]) were 280 nM and 190 nM, respectively.
On the same counts, the results for `CC(=O)c1ccc(S(=O)(=O)NC(=O)Nc2c3c(cc4c2CCC4)CCC3)cc1` [drawing 363] are 36 nM and 310 nM.
On the same counts, the results for `Nc1ccc(S(=O)(=O)NC(=O)Nc2c3c(cc4c2CCC4)CCC3)cc1` [drawing 365] are 14 nM and 310 nM.
In the case of `O=C(Nc1c2c(cc3c1CCC3)CCC2)NS(=O)(=O)c1ccc(Cl)cc1` [drawing 366], the IC50 on NLRP3 inflammasome [4] (setting [8]) is 30 nM; on NLRP3 inflammasome [1] (setting [9]), 300 nM.
On the same counts, the results for `O=C(Nc1c2c(cc3c1CCC3)CCC2)NS(=O)(=O)c1ccc2c(c1)CCC2` [drawing 367] are 50 nM and 1460 nM.

As usually defined, the IC50 is the concentration at which inhibition is half-maximal.
